Data from patent US8318976B2, “Salts, aqueous liquid compositions containing salts of S-(+)-abscisic acid and methods of their preparation” (Valent BioSciences Corporation, priority 2007, dated 2012).
Like-named read-outs stand apart in the source and are kept apart here.

Tests used:
[1] = system: tomato leaf transpiration; assay: Tomato leaf transpiration rate after foliar spray (LI-1600 porometer); type: in vivo, Tomato (variety: Rutgers); conditions: for Transpiration rate (% of control), 3-Day Average: average of days 1-3; for Transpiration rate (% of control), Days after treatment 1: day 1; for Transpiration rate (% of control), Days after treatment 2: day 2; for Transpiration rate (% of control), Days after treatment 3: day 3
Protocol: Preparation of plant specimens for use in the treatment studies of the EXAMPLES that follow was carried out as follows. Tomato (variety: Rutgers) seeds were sown in an 18-cell flat filled with Promix PGX (available from Premier Horticulture Inc., Quakertown Pa.) and grown for 3 weeks to allow for germination and initial growth. Plants were then transplanted into pots (18 cm in diameter and 18 cm in height), filled with Promix BX (available from Premier Horticulture Inc., Quakertown Pa.), and grown for one or two more weeks before treatment, depending on temperature and available light. Plants received daily irrigation and weekly fertilizer (1 g/L all purpose fertilizer 20-20-20, available from The Scotts Company, Marysville, Ohio).
All treatment solutions were made up with distilled water. The (S)-(+)-abscisic acid (95% active ingredient) is available from Lomon BioTechnology Co., Ltd. (Shichuan, China). Twenty L of a 250 ppm solution of (S)-(+)-abscisic acid was prepared and stored in the dark at 20-25° C. This same 250-ppm (S)-(+)-abscisic acid solution was used as a control for all studies to eliminate the possibility of applying an incorrect concentration.
All experiments were conducted using a randomized complete block experimental design. Solutions of (S)-(+)-abscisic acid and blank treatments (plain water) were applied by spray to the aerial parts of the tomato plants at the rate of 20 mL per 6 plants. Plants were then placed in a transparent chamber with humidity controlled within the range of 40 to 60% relative humidity. Leaf transpiration rates were measured at 1, 2 and 3 days after treatment. Measurements were conducted using a LI-1600 Steady State Porometer (LI-Cor, Lincoln, Nebr.). Each day the transpiration rate of the plants of each treatment group was normalized to a percentage of the transpiration rate of untreated plants (plants sprayed with water only) in order to control for day-to-day variability in plant status caused by changes of environmental conditions such as light intensity and temperature. Data of each plant was also averaged over a 3-day period to balance the short term and long term effect of (S)-(+)-abscisic acid on tomato leaf transpiration as well as to reduce experimental variability.

[2] = system: California Blackeye Pea (cowpea); assay: Phytotoxicity and growth after foliar application; type: in vivo; conditions: for % Leaf Area Damaged 3 days after treatment: monofoliate leaves
Protocol: Phytotoxicity is defined as damage to a plant caused by treatment with an externally applied chemical substance. Phytotoxicity caused by application of an agricultural chemical is considered highly undesirable (except in the case of herbicides). To test the relative safety of the compositions of the present invention, comprising an ammonium salt of (S)-(+)-abscisic acid, as compared to compositions of the prior art, comprising an ammonium salt of (R,S)-(±)-abscisic acid, plants were treated with solutions containing two different concentrations of the (S)-(+)-abscisic acid or with solutions containing (R,S)-(±)-abscisic acid at concentrations in which either the total concentration of (R,S)-(±)-abscisic acid was equal to the higher concentration of (S)-(+)-abscisic acid or in which the concentration of (S)-(+)-abscisic acid contained in the (R,S)-(±)-abscisic acid was equal to the higher treatment concentration of the pure (S)-(+)-abscisic acid. California Blackeye Pea (cowpea) seed was planted into 18 cell flats filled with Promix PGX in a greenhouse. When the plants had grown to a point where the monofoliate leaves were fully expanded and the first trifoliate leaves were emerging (18 days after planting) the plants were sprayed with 1.5 ml of treatment solution. After treatment the plants were held in the greenhouse and evaluated for damage to the monofoliate leaves and also for growth of the trifoliate leaves. The percentage of the monofoliate leaf area that was damaged was estimated three days after treatment, and monofoliate leaf abscission and trifoliate leaf development were determined on the fifth day after treatment.

[3] = literature reports; cited from earlier work
[4] = cited from earlier work; for highest concentration achievable in water: pure water, room / ordinary ambient temperature

With CC1=CC(=O)CC(C)(C)C1(O)/C=C/C(C)=C\C(=O)O.N (racemic) [(R,S)-(±)-abscisic acid ammonium salt] the “Transpiration rate (% of control), 3-Day Average” value ([1]; Table 8, 250 ppm spray) was 90.95 % of control, the “Transpiration rate (% of control), Days after treatment 1” value ([1]; Table 8, 250 ppm spray) was 90.26 % of control and the “Transpiration rate (% of control), Days after treatment 2” value ([1]; Table 8, 250 ppm spray) was 87.73 % of control. For the same compound, the “Transpiration rate (% of control), Days after treatment 3” value ([1]; Table 8, 250 ppm spray) was 94.86 % of control, the “Transpiration rate (% of control), 3-Day Average” value ([1]; Table 8, 500 ppm spray) was 81.03 % of control and the “Transpiration rate (% of control), Days after treatment 1” value ([1]; Table 8, 500 ppm spray) was 77.53 % of control. For the same compound, the “Transpiration rate (% of control), Days after treatment 2” value ([1]; Table 8, 500 ppm spray) was 76.20 % of control, the “Transpiration rate (% of control), Days after treatment 3” value ([1]; Table 8, 500 ppm spray) was 89.36 % of control and the “Average Number of Abscised Monofoliate Leaves 5 days after treatment” value ([2]; 6250 ppm foliar spray) was 1.7. For the same compound, the “Average Number of New Trifoliate Leaves 5 days after treatment” value ([2]; 6250 ppm foliar spray) was 0.0, the “% Leaf Area Damaged 3 days after treatment” value ([2]; 6250 ppm foliar spray) was 97% and the “Average Number of Abscised Monofoliate Leaves 5 days after treatment” value ([2]; 12500 ppm foliar spray) was 2.0. For the same compound, the “Average Number of New Trifoliate Leaves 5 days after treatment” value ([2]; 12500 ppm foliar spray) was 0.0, the “% Leaf Area Damaged 3 days after treatment” value ([2]; 12500 ppm foliar spray) was 100% and the “relative phytotoxicity, (S)-(+)- vs (R,S)-(±)-abscisic acid salt” value ([2]; equal total dose or equal (S)-(+)-enantiomer dose) was “more phytotoxicity”.
For CC1=CC(=O)CC(C)(C)[C@]1(O)/C=C/C(C)=C\C(=O)O [(R)-(−)-abscisic acid], the biological activity [3] is given as “biologically inactive”.
For CC(C=C[C@@]1(O)C(C)=CC(=O)CC1(C)C)=CC(=O)O [(S)-(+)-2-trans-,4-trans-isomer], the biological activity [3] is listed as “biologically inactive”.
With CC1=CC(=O)CC(C)(C)[C@@]1(O)/C=C/C(C)=C\C(=O)O [(S)-(+)-abscisic acid, 2-cis-, 4-trans-(S)-(+)-abscisic acid] the “Transpiration rate (% of control), 3-Day Average” value ([1]; Table 1, 250 ppm spray) was 87.02 % of control, the “Transpiration rate (% of control), Days after treatment 1” value ([1]; Table 1, 250 ppm spray) was 75.59 % of control and the “Transpiration rate (% of control), Days after treatment 2” value ([1]; Table 1, 250 ppm spray) was 89.83 % of control. The “Transpiration rate (% of control), Days after treatment 3” value ([1]; Table 1, 250 ppm spray) was 95.63 % of control, the “Transpiration rate (% of control), 3-Day Average” value ([1]; Table 2, 250 ppm spray) was 87.02 % of control and the “Transpiration rate (% of control), Days after treatment 1” value ([1]; Table 2, 250 ppm spray) was 75.59 % of control. The “Transpiration rate (% of control), Days after treatment 2” value ([1]; Table 2, 250 ppm spray) was 89.83 % of control, the “Transpiration rate (% of control), Days after treatment 3” value ([1]; Table 2, 250 ppm spray) was 95.63 % of control and the “Transpiration rate (% of control), 3-Day Average” value ([1]; Table 3, 250 ppm spray) was 80.78 % of control. For the same compound, the “Transpiration rate (% of control), Days after treatment 1” value ([1]; Table 3, 250 ppm spray) was 72.66 % of control, the “Transpiration rate (% of control), Days after treatment 2” value ([1]; Table 3, 250 ppm spray) was 76.18 % of control and the “Transpiration rate (% of control), Days after treatment 3” value ([1]; Table 3, 250 ppm spray) was 93.50 % of control. For the same compound, the “Transpiration rate (% of control), 3-Day Average” value ([1]; Table 4, 250 ppm spray) was 83.21 % of control, the “Transpiration rate (% of control), Days after treatment 1” value ([1]; Table 4, 250 ppm spray) was 75.30 % of control and the “Transpiration rate (% of control), Days after treatment 2” value ([1]; Table 4, 250 ppm spray) was 83.65 % of control. The “Transpiration rate (% of control), Days after treatment 3” value ([1]; Table 4, 250 ppm spray) was 90.68 % of control, the “Transpiration rate (% of control), 3-Day Average” value ([1]; Table 5, 250 ppm spray) was 69.00 % of control and the “Transpiration rate (% of control), Days after treatment 1” value ([1]; Table 5, 250 ppm spray) was 59.35 % of control. The “Transpiration rate (% of control), Days after treatment 2” value ([1]; Table 5, 250 ppm spray) was 71.02 % of control, the “Transpiration rate (% of control), Days after treatment 3” value ([1]; Table 5, 250 ppm spray) was 76.62 % of control and the “Transpiration rate (% of control), 3-Day Average” value ([1]; Table 7, 250 ppm spray) was 78.21 % of control. For the same compound, the “Transpiration rate (% of control), Days after treatment 1” value ([1]; Table 7, 250 ppm spray) was 71.16 % of control, the “Transpiration rate (% of control), Days after treatment 2” value ([1]; Table 7, 250 ppm spray) was 75.23 % of control and the “Transpiration rate (% of control), Days after treatment 3” value ([1]; Table 7, 250 ppm spray) was 88.25 % of control. The “Transpiration rate (% of control), 3-Day Average” value ([1]; Table 8, 250 ppm spray) was 78.21 % of control, the “Transpiration rate (% of control), Days after treatment 1” value ([1]; Table 8, 250 ppm spray) was 71.16 % of control and the “Transpiration rate (% of control), Days after treatment 2” value ([1]; Table 8, 250 ppm spray) was 75.23 % of control. For the same compound, the “Transpiration rate (% of control), Days after treatment 3” value ([1]; Table 8, 250 ppm spray) was 88.25 % of control, the “solubility in hard water” value ([4]; hard water, compared with pure water) was “even less” and the “solubility in propylene glycol” value ([4]; propylene glycol) was “poorly soluble”. The “highest concentration achievable in water” value [4] was no more than 3000 ppm and the “highest concentration achievable in water” value ([4]; listed as abscisic acid) was “about 3000 ppm”.
